# Laboratory results: patent US20170348280A1 (priority 2016, published 2017)
# Like-named read-outs stand apart in the source and are kept apart here.
# Key:
# [1] = test system: ECM deposition of collagen type IV by AoSMC; experiment: ECM deposition of collagen type IV by AoSMC (immunoassay); format: cell-based, human; conditions: for decrease in ascorbyl palmitate dependent ECM deposition of collagen IV / reduction of ascorbic acid dependent deposition of collagen type IV to the ECM: 50 μM nifedipine; for increased collagen IV deposition: compared to 1.25 μM
# Method: (§1) Both cell cultures were maintained in DMEM medium (ATCC) containing antibiotics and 5% fetal bovine serum (FBS, ATCC). All cell cultures were maintained at 37° C. and 5% CO2 atmosphere. Cell viability was monitored with MTT assay.
# (§2) Collagen production by human cultured cells: In the case of these experiments, DF or AoSMC, at 5th to 8th passages, were seeded on collagen type I-covered plastic plates (Becton-Dickinson, collagen I isolated from rat tail tendon) at density of 25,000/cm^2 and grown to confluence for 5-7 days. […] Tested compounds were added to cells at indicated concentrations for 72 h in DMEM supplemented with 2% FBS and cell-produced extracellular matrix was exposed by sequential treatment with 0.5% Triton X100 and 20 mM ammonium […] in phosphate buffered saline (PBS, Life Technologies) for 3 min each at room temperature. After four washes with PBS, ECM layers were treated with 1% bovine serum albumin (BSA) in PBS for one hour at room temperature and immediately used in experiments.
# (§3) Collagen and beta-actin immunoassays: Immunoassays were done by sequential incubation with primary monoclonal antibodies specific to human collagen type I or IV or human beta-actin in 1% BSA/PBS for 2 hours followed by 1 hour incubation with secondary goat anti-mouse IgG antibodies labeled with horse radish peroxidase (HRP).
# (§4) Differences between samples were estimated with a two-tailed Student's t-test using MedCalc software (Mariakerke, Belgium) and accepted as significant at p levels less than 0.05.
# [2] = test system: intracellular content of collagen type I in AoSMC; experiment: Intracellular content of collagen type I in AoSMC (immunoassay); format: cell-based, human; conditions: for reduction of ascorbate-dependent intracellular collagen type 1 synthesis: 50 μM nifedipine; for reduction of ascorbate-dependent collagen type 1 synthesis: nifedipine
# Method: as §1, §2, §3, §4
# [3] = test system: intracellular content of beta-Actin in AoSMC; experiment: Intracellular content of beta-actin in AoSMC (immunoassay); format: cell-based, human; conditions: for reduction of ascorbate-dependent beta-actin intracellular content compared to control: 50 μM nifedipine; for reduction of intracellular beta actin content: nifedipine
# Method: as §1, §2, §3, §4
# [4] = test system: intracellular content of collagen type I normalized to beta actin content in aortic smooth muscle cells; experiment: Intracellular collagen type I normalized by beta actin content in AoSMC; format: cell-based, human; conditions: for reduction of intracellular content of collagen type I normalized to beta actin content compared to the control: 50 μM nifedipine
# Method: as §2, §3, §4
# [5] = test system: ascorbate accumulation inside human AoSMC; experiment: Intracellular ascorbic acid assay in AoSMC; format: cell-based
# Method: Cells were washed briefly three times with ice-cold PBS on ice and incubated with 300 μl of 0.1% saponin in 1% ethanol in PBS for 10 min on an orbit mixer. Samples were collected to Eppendorf tubes and centrifuged at 13,000×g for 5 min. Supernatants were used in an ascorbic acid assay (Ascorbic Acid Colorimetric Assay Kit […], BioVision) in accordance with the manufacturer's protocol. […] Differences between samples were estimated with a two-tailed Student's t-test using MedCalc software ([…], Belgium) and accepted as significant at p levels less than 0.05.
# [6] = test system: ECM deposition of collagen type I by cultured AoSMC; experiment: ECM deposition of collagen type I by cultured AoSMC (immunoassay); conditions: for reduction of ascorbyl palmitate dependent deposition of collagen type 1 to the ECM / reduction of ascorbic acid dependent deposition of collagen type 1 to the ECM: 50 μM nifedipine
# [7] = test system: collagen type I ECM deposition by cultured human skin fibroblasts; experiment: Collagen type I ECM deposition by cultured human skin fibroblasts (immunoassay); format: cell-based; conditions: channel blocker alone, without ascorbate; 72 h; FIG. 1A-1F
# Method: as §1, §2
# Collagen and beta-actin immunoassays: Immunoassays were done by sequential incubation with primary monoclonal antibodies specific to human collagen type I or IV or human beta-actin in 1% BSA/PBS for 2 hours followed by 1 hour incubation with secondary goat anti-mouse IgG antibodies labeled with horse radish peroxidase (HRP). […]
# [8] = test system: human vascular smooth muscle cells and fibroblasts; conditions: cited from earlier work
# [9] = cited from earlier work
# cultured fibroblasts = experiment: Cell viability / cytotoxicity (MTT assay), fibroblasts; format: cell-based, human; conditions: data not shown
# Method: as §1
# smooth muscle cells = experiment: Cell viability / cytotoxicity (MTT assay), smooth muscle cells; format: cell-based, human; conditions: cultured smooth muscle cells; data not shown
# Method: as §1
# [10] = 100 μM ascorbic acid compared to 25 μM ascorbic acid
# [11] = 400 μM ascorbic acid compared to 25 μM ascorbic acid
structure (smiles),measurement,setting,value
COC(=O)C1=C(C)NC(C)=C(C(=O)OC)C1c1ccccc1[N+](=O)[O-] [nifedipine],decrease in ascorbyl palmitate dependent ECM deposition of collagen IV,[1]; 1.25 μM ascorbyl palmitate,23.5%
same,decrease in ascorbyl palmitate dependent ECM deposition of collagen IV,[1]; 2.5 μM ascorbyl palmitate,22.7%
same,decrease in ascorbyl palmitate dependent ECM deposition of collagen IV,[1]; 5 μM ascorbyl palmitate,22%
same,decrease in ascorbyl palmitate dependent ECM deposition of collagen IV,[1]; 10 μM ascorbyl palmitate,13.5%
same,decrease in ascorbyl palmitate dependent ECM deposition of collagen IV,[1]; 20 μM ascorbyl palmitate,31.6%
same,reduction of ascorbic acid dependent deposition of collagen type IV to the ECM,[1]; 25 μM ascorbic acid,36%
same,reduction of ascorbic acid dependent deposition of collagen type IV to the ECM,[1]; 100 μM ascorbic acid,54%
same,reduction of ascorbic acid dependent deposition of collagen type IV to the ECM,[1]; 400 μM ascorbic acid,43%
same,reduction of ascorbate-dependent intracellular collagen type 1 synthesis,[2]; 25 μM ascorbic acid,61%
same,reduction of ascorbate-dependent intracellular collagen type 1 synthesis,[2]; 100 μM ascorbic acid,49.1%
same,increase of intracellular collagen I compared to control,[2]; nifedipine with 400 μM ascorbic acid,122%
same,reduction of ascorbate-dependent collagen type 1 synthesis,[2]; ascorbyl palmitate at 5 (unit not given),20.3%
same,reduction of ascorbate-dependent collagen type 1 synthesis,[2]; ascorbyl palmitate at 20 (unit not given),38%
same,reduction of ascorbate-dependent beta-actin intracellular content compared to control,[3]; 25 μM ascorbic acid,29%
same,reduction of ascorbate-dependent beta-actin intracellular content compared to control,[3]; 100 μM ascorbic acid,22.6%
same,reduction of ascorbate-dependent beta-actin intracellular content compared to control,[3]; 400 μM ascorbic acid,5%
same,reduction of intracellular beta actin content,[3]; 5 μM ascorbyl palmitate,22%
same,reduction of intracellular beta actin content,[3]; 20 μM ascorbyl palmitate,23.6%
same,reduction of intracellular content of collagen type I normalized to beta actin content compared to the control,[4]; 25 μM ascorbic acid,46%
same,reduction of intracellular content of collagen type I normalized to beta actin content compared to the control,[4]; 100 μM ascorbic acid,34.4%
same,increase of collagen I (normalized to beta actin) compared to control,"[4]; nifedipine, 400 μM ascorbic acid",23%
same,effect on collagen I content (normalized to beta actin),"[4]; nifedipine, ascorbyl palmitate at 5 μM and 20 μM",no significant effect
same,effect on intracellular ascorbate levels,[5],no significant effect
same,decrease of intracellular ascorbate,"[5]; 50 μM nifedipine, 100 μM ascorbic acid, 90 min",61.5%
same,reduction of ascorbate intracellular content,"[5]; 50 μM nifedipine, 400 μM ascorbic acid, 90 min",67.7%
same,reduction of ascorbyl palmitate dependent deposition of collagen type 1 to the ECM,[6]; 1.25 μM ascorbyl palmitate,25%
same,reduction of ascorbyl palmitate dependent deposition of collagen type 1 to the ECM,[6]; 2.5 μM ascorbyl palmitate,38%
same,reduction of ascorbyl palmitate dependent deposition of collagen type 1 to the ECM,[6]; 5 μM ascorbyl palmitate,27.5%
same,reduction of ascorbyl palmitate dependent deposition of collagen type 1 to the ECM,[6]; 10 μM ascorbyl palmitate,11%
same,reduction of ascorbyl palmitate dependent deposition of collagen type 1 to the ECM,[6]; 20 μM ascorbyl palmitate,26.5%
same,reduction of ascorbic acid dependent deposition of collagen type 1 to the ECM,[6]; 25 μM ascorbic acid,62.3%
same,reduction of ascorbic acid dependent deposition of collagen type 1 to the ECM,[6]; 100 μM ascorbic acid,41.8%
same,reduction of ascorbic acid dependent deposition of collagen type 1 to the ECM,[6]; 400 μM ascorbic acid,16.5%
COc1cc(CNC(=O)CCCC/C=C/C(C)C)ccc1O [capsaicin],inhibition of collagen type I deposition to the ECM,[7],"slight, insignificant inhibition"
COc1ccc([C@@H]2Sc3ccccc3N(CCN(C)C)C(=O)[C@@H]2OC(C)=O)cc1 [ditiazem],inhibition of collagen type I deposition to the ECM,[7],up to 13.1%
same,constitutive and platelet-derived growth factor-dependent collagen deposition in the ECM,[8],significantly decreased
O=C1O[C@H]([C@@H](O)CO)C(O)=C1O [ascorbic acid],increased collagen IV ECM deposition,[1]; [10],175%
same,increased collagen IV ECM deposition,[1]; [11],166%
same,excretion half-life,"[9]; body stores depleted, by the onset of the first symptoms of scurvy",83 days
same,renal resorption threshold (plasma level),[9]; men,about 1.5 mg/dL
same,half-life of excretion in the urine,[9]; plasma concentrations larger than renal resorption threshold,about 30 minutes
same,renal resorption threshold (plasma level),[9]; women,~1.3 mg/dL
same,increase of collagen type 1 ECM deposition,[6]; [10],114%
same,increase of collagen type 1 ECM deposition,[6]; [11],176%
CCCCCCCCCCCCCCCC(=O)OC[C@H](O)[C@H]1OC(=O)C(O)=C1O [ascorbyl palmitate],increased collagen IV deposition,[1]; 2.5 μM ascorbyl palmitate alone,113%
same,increased collagen IV deposition,[1]; 5 μM ascorbyl palmitate alone,144%
same,increased collagen IV deposition,[1]; 10 μM ascorbyl palmitate alone,138%
same,increased collagen IV deposition,[1]; 20 μM ascorbyl palmitate alone,168%
same,higher intracellular levels of ascorbic acid compared to the highest concentration of ascorbic acid used (400),[5]; supplementation with 20 ascorbyl palmitate (unit not given),10 ×
same,levels found to be cytotoxic,cultured fibroblasts,higher than 20 μM
same,levels found to be cytotoxic,smooth muscle cells,higher than 20 μM
same,increase of collagen type 1 ECM deposition,"[6]; 2.5 μM ascorbyl palmitate administered individually, compared to 1.25 μM",135%
same,increase of collagen type 1 ECM deposition,"[6]; 5 μM ascorbyl palmitate administered individually, compared to 1.25 μM",189%
same,increase of collagen type 1 ECM deposition,"[6]; 10 μM ascorbyl palmitate administered individually, compared to 1.25 μM",184%
same,increase of collagen type 1 ECM deposition,"[6]; 20 μM ascorbyl palmitate administered individually, compared to 1.25 μM",212%
C=C[C@H]1C[N@@]2CC[C@H]1C[C@@H]2[C@@H](O)c1ccnc2ccc(OC)cc12 [quinidine],effects on ascorbic acid dependent collagen type I and type IV deposition in AoSMC,"[6]; compared with nifedipine, data not shown",comparable results
COc1ccc(CCN(C)CCCC(C#N)(c2ccc(OC)c(OC)c2)C(C)C)cc1OC (stereo not drawn) [verapamil],constitutive and platelet-derived growth factor-dependent collagen deposition in the ECM,[8],significantly decreased
